{
  "source": "patent US12611415B2",
  "about": "“Methods and compounds for treatment of metabolic disease” (Monash University, priority 2019, dated 2026)",
  "assay_type_in_all_cases": "in vivo, mouse",
  "key": {"[1]": {"system": "C57BL6/J mice fed high fat diet (HFD)", "experiment": "Celecoxib / Compound I-1 treatment study in HFD fed mice", "description": "All animal work was conducted per Australian National Health and Medical Research Council (NHMRC) guidelines for the care and use of animals in research. Seven-week-old male Sprague Dawley rats or C57BL6/J mice were randomized and housed in groups of 2-5 in a temperature-controlled room under specific-pathogen free (SPF) or standard animal housing conditions with free access to food and water.\nIn the observational studies, mice or rats were fed semi-purified normal chow diet (control fat diet (CFD), 7% w/w fat and 16% total energy from fat, AIN93G, Specialty Feeds Pty Ltd, Australia) or high fat diet (HFD, 36% w/w fat and 59% total energy from fat, SF03-002, Specialty Feeds Pty Ltd, Australia) for a total duration of 6, 15, 23 or 32 weeks to evaluate changes to mesenteric lymph composition, structure and function over time during the progression of obesity. Mice or rats were fed with the same CFD or HFD for 6-10 weeks prior to collection of mesenteric lymph for in vitro incubation with lymphatic endothelial cells (LECs) and adipocytes, respectively.\nA “prevention study” and a “treatment study” were also conducted. Both the prevention and treatment studies included mice fed the CFD or HFD for 15 or 23 weeks, as described above. In the prevention study, an additional group of mice was fed the HFD supplemented with celecoxib at a dose equivalent to ˜29 mg/kg/day (based on average food intake) for 15 weeks. In the treatment study, animals were fed the HFD for 15 weeks followed by a HFD supplemented with celecoxib (˜29 mg/kg/day) or Compound I-1 (˜9 mg/kg/day celecoxib equivalents) for 7-8 weeks. The celecoxib was purchased from MedChemExpress (NJ, USA), and Compound I-1 was synthesized consistent with the description in WO2016/023082.\nAcross all studies, body mass was measured once per week. Oral glucose tolerance tests (OGTTs) were conducted at 5, 14, 22 and/or 31 weeks after commencing feeding mice the HFD or CFD. To perform OGTTs, mice were routinely handled for 2 weeks prior to minimize the stress caused by handling during the experiment. On the day of the OGTT, mice were fasted for 4 h (7-11 am) but still had free access to water. Glucose (50 mg D-glucose in 200 μL water) was administered via oral gavage and a drop of blood was collected from the tail tip at fixed time points (0, 15, 30, 60, 90 and 120 mins). Blood glucose was measured using a One-touch glucometer (AccuCheck Performa, Roche, Switzerland). Plasma was separated from the remaining blood sample via centrifugation and reserved for measurement of plasma insulin concentrations via ELISA as described above.\nAt the end of all experiments, mice were euthanised via cervical dislocation and rats were euthanised via intracardiac injection of sodium pentobarbitone (100 mg). Organs and tissues, including the lymph nodes and adipose tissue depots, were carefully collected. The mass of adipose tissue depots was weighed to determine adiposity.\nMesenteric adipose tissue samples (for lymphatic capillary and mesenteric lymphatic vessel analysis) and small intestine samples (for villi and lacteal analysis) were collected with fine forceps. Whole mount adipose tissue was cut into ˜3 mm×3 mm×2 mm pieces and whole mount small intestine was cut into 1.5 cm segments. Immediately after collection, the tissue samples were fixed in 4% paraformaldehyde in PBS at 4° C. overnight. Fat associated lymph clusters (FALCs) were identified by intraperitoneal injection of FluoSphere Carboxylate-Modified Nanospheres, 100 nm, yellow-green (505/515, Invitrogen, CA, USA) and collected with fine forceps under a Zeiss Stemi 2000-CS surgical microscope (2.5× magnification) with a fluorescence adaptor (Nightsea, MA, USA). The fluorescent light was filtered through a cyan color light filter (Electron Microscopy Science, PA, USA) to visualize the nanospheres and thus the FALCs. FALCs were cleaned of adipose tissue after collected and placed whole in 4% paraformaldehyde in PBS at 4° C. overnight. […]"}, "[2]": {"system": "mice with HFD-induced obesity", "experiment": "Dose comparison study of Compound I-1 and celecoxib in HFD mice (FIG. 7)", "excerpt": "Timelines and treatment groups are shown in panel a. (b-c) n=8 (CFD), 8 (CP90), 4, (CP30), 7 (CP10), 4 (Cele30), 5 (Cele 10), 6 (Cele3) and 4 (HFD). (c-d) n=7 (CFD), 7 (CP90), 5, (CP30), 7 (CP10), 5 (Cele30), 7 (Cele 10), 6 (Cele3) and 7 (HFD). (e-f) n=12 (CFD), 8 (CP90), 6 (CP30), 7 (CP10), 7 (Cele30), 8 (Cele 10), and 6 (Cele3), 8 (HFD). (g-h) n=10 (CFD), 8 (CP90), 6 (CP30), 7 (CP10), 6 (Cele30), 8 (Cele 10), and 7 (Cele3), 11 (HFD). (i-j) n=4 (CFD), 7 (CP 90), 7 (CP 10), 7 (Cele 10) and 6 (Cele 3). Statistical differences from one-way ANOVA, compared to CFD (baseline). *p<0.05, **p<0.01, ***p<0.005, ****p<0.001."}, "[3]": {"system": "mice with chronic HFD-induced obesity", "experiment": "Chronic HFD-induced obesity model, Compound I-1 versus CFD switch (FIG. 8)", "excerpt": "Details regarding treatment times and controls are shown in panel (a). Panels b-e show lymph “leakage” into surrounding VAT due to HFD-induced remodelling of the mesenteric lymphatics, as measured by intramucosal injection of Evans blue dye and lymphangiography. (f-g) n=2 (CFD), 7 (HFD), 8 (Cele-pro (CP30)) and 5 (CFD switch)."}, "[4]": {"system": "mice reintroduced to a high-fat diet", "experiment": "HFD rechallenge study (FIG. 9)", "conditions": "Cele-pro (CP30)", "excerpt": "Details regarding treatment times and controls are shown in panel (a). Panels b-e show whole mount immunofluorescence images of the mesenteric afferent lymph vessels and cell nuclei in VAT of several mouse groups. Panels f-i show lymph “leakage” into surrounding VAT due to HFD-induced remodelling of the mesenteric lymphatics, as measured by intramucosal injection of Evans blue dye and lymphangiography. (j-m) n=5 (CFD), 5 (HFD), 6 (HFD rechallenge-Cele-pro (CP30)) and 5-7 (HFD rechallenge-CFD switch). (a-d) n=5 (CFD), 6 (HFD), 8 (HFD rechallenge-Cele-Pro (CP30)) and 7 (HFD rechallenge-CFD switch)."}, "[5]": {"conditions": "Compound I-1 ~9 mg/kg/day celecoxib equivalents, celecoxib at a 3.2-fold higher dose"}, "[6]": {"conditions": "HFD 15 weeks, then 7 weeks drug in HFD feed"}, "[7]": {"conditions": "HFD 15 weeks, then 7 weeks drug in HFD feed, Compound I-1 ~9 mg/kg/day celecoxib equivalents, celecoxib ~29 mg/kg/day"}, "[8]": {"conditions": "Compound I-1 at doses as low as 10 mg/kg (~3 mg/kg celecoxib), ~10-fold lower dose relative to celecoxib"}, "[9]": {"conditions": "various doses of Compound I-1 versus higher corresponding doses of celecoxib"}, "[10]": {"conditions": "chronic HFD-induced obesity models, Cele-pro (CP30)"}},
  "note": "Entries after “also recorded” stand apart in the source; their conditions may differ.",
  "data": [
    {"smiles": "CCCCCCCCCCCCCCCC(=O)OCC(COC(=O)CCCCCCCCCCCCCCC)OC(=O)CCCCCCCCC(=O)Oc1cc(C)cc(C)c1C(C)(C)CC(=O)NS(=O)(=O)c1ccc(-n2nc(C(F)(F)F)cc2-c2ccc(C)cc2)cc1", "note": "[Compound I-1]", "values": [
      {"measurement": "body weight gain induced by HFD (obesity)", "setting": "[1]; [5]", "value": "significantly reduced; also recorded: reverses, more effectively"},
      {"measurement": "hyperinsulinemia in the fasted state and after glucose challenge (insulin resistance)", "setting": "[1]; [5]", "value": "significantly improved; also recorded: reverses, more effectively"},
      {"measurement": "oral glucose tolerance", "setting": "[1]; [5]", "value": "significantly improved"},
      {"measurement": "SAT and VAT accumulation", "setting": "[1]; Compound I-1 ~9 mg/kg/day celecoxib equivalents, compared with celecoxib at a 3.2-fold higher dose", "value": "more significantly reduced"},
      {"measurement": "cholesterol levels in mesenteric lymph", "setting": "[1]; [6]", "value": "decreased"},
      {"measurement": "lymph lipid profile (lipidomic analysis of mesenteric lymph) / lymph composition", "setting": "[1]; [6]", "value": "shift in the lymph lipid profile from a HFD-like toward a more CFD-like profile; also recorded: reverses, more effectively"},
      {"measurement": "total concentrations of triglyceride, phospholipid and glucose in mesenteric lymph", "setting": "[1]; [6]", "value": "trends toward a decrease"},
      {"measurement": "total free fatty acid (FFA) in mesenteric lymph", "setting": "[1]; [6]", "value": "significantly increased"},
      {"measurement": "immune cell numbers in mesenteric lymph nodes reversed to levels similar to CFD mice", "setting": "[1]; [7]", "value": "successfully reversed"},
      {"measurement": "immune cells in the mesenteric lymph fluid", "setting": "[1]; [7]", "value": "reduced"},
      {"measurement": "lymph leakage into VAT", "setting": "[1]; [7]", "value": "reversed; also recorded: reverses, more effectively"},
      {"measurement": "mesenteric lymph levels of PGE2", "setting": "[1]; [7]", "value": "reduced"},
      {"measurement": "mesenteric lymph levels of VEGF-C", "setting": "[1]; [7]", "value": "below the limit of quantification; also recorded: reverses, more effectively"},
      {"measurement": "mesenteric lymphatic branching", "setting": "[1]; [7]", "value": "reversed; also recorded: reverses, more effectively"},
      {"measurement": "mesenteric lymphatic dysfunction, visceral obesity, inflammation, glucose intolerance, and insulin resistance associated with obesity", "setting": "[1]; compared with non-lymph-targeted celecoxib", "value": "reverse, more effectively"},
      {"measurement": "VAT lymph leakage", "setting": "[2]; [8]", "value": "superior; also recorded: reverses, more effectively"},
      {"measurement": "restoration of glycaemic control", "setting": "[2]; [8]", "value": "superior"},
      {"measurement": "reversal of VAT lymphangiogenesis (lymph vessel branching)", "setting": "[2]; [8]", "value": "superior; also recorded: reverses, more effectively"},
      {"measurement": "reducing fasting plasma triglycerides", "setting": "[2]; compared with a 3-fold higher dose of celecoxib", "value": "superior"},
      {"measurement": "HFD-induced obesity, weight", "setting": "[2]; [9]", "value": "reverses, more effectively"},
      {"measurement": "changes to lymph composition", "setting": "[2]; [9]", "value": "reverses, more effectively"},
      {"measurement": "insulin resistance", "setting": "[2]; [9]", "value": "reverses, more effectively"},
      {"measurement": "oral glucose tolerance", "setting": "[2]; [9]", "value": "reverses, more effectively"},
      {"measurement": "effects on mice on a high-fat diet relative to animals switched to a chow-fat diet", "setting": "[3]; Cele-pro (CP30) versus CFD switch", "value": "comparable"},
      {"measurement": "VAT inflammation", "setting": "[3]; [10]", "value": "reverses"},
      {"measurement": "insulin resistance", "setting": "[3]; [10]", "value": "reverses"},
      {"measurement": "lymphatic dysfunction", "setting": "[3]; [10]", "value": "reverses"},
      {"measurement": "beneficial effects after reintroducing the mice to a high-fat diet (HFD rechallenge)", "setting": "[4]", "value": "persist"}
    ]}
  ]
}
